Broadly, the IC50 is the concentration that gives 50% inhibition. Broadly, the Kd is the equilibrium constant for the complex coming apart. The low end stands for higher affinity, the high end for lower affinity.

For assay [1], the target named is T1, anti-kynurenine antibody (monoclonal Mouse IgG1a k chain, clone 3D4-F2).
T1 construct: biotinylated whole antibody on streptavidin magnetic beads
The assay can be described thus: competitive magnetic bead immunoassay, displacement of fluorescent conjugate […] in PBS. Type of assay: binding.

Assay [2] shares this target. The assay is described as follows: magnetic bead immunoassay, fluorescence of unbound conjugate in supernatant. Type of assay: binding.

As for `Nc1ccccc1C(=O)C[C@H](N)C(=O)O` [L-kynurenine], the half-maximal inhibitory concentration (IC50) in assay [1] came to 4 µM. That is a single-digit micromolar value. In turn, `CCN(CC)c1ccc2c(-c3ccccc3C(=O)OCc3cn(CCOCCOCCOCCNC(=O)[C@@H](N)CC(=O)c4ccccc4N)nn3)c3ccc(N(CC)CC)cc3[o+]c2c1` [compound 5, L-Kyn-4EG-RhB] yielded a Kd in assay [2] of 5.9 µM.

The values are drawn from paper PMC9221851, “A Fluorescence-Based Competitive Antibody Binding Assay for Kynurenine, a Potential Biomarker of Kidney Transplant Failure” (Diagnostics, 2022).
